Test results as given in publication PMC5148701 (Journal of medicinal chemistry, 2016).
Several values for one entry are separate records, joined by “and”; a condition that tells them apart may be missing. Equal entries are not always repeated. Entries after “also recorded” stand apart in the source; their conditions may differ. Where two headings read alike, the source gives them in different places.

Key:
hD2L receptors = hD2L receptors (Homo sapiens, UniProt P14416); assay: D2R Gi/o-mediated cAMP inhibition assay; type: cell-based; details: for Emax: HEK-293T; for cAMP Emax (%): HEK293T cells, GloSensor-22F
human D2Rlong [1] = molecular target: T1, human D2Rlong (Homo sapiens, UniProt P14416); assay: DiscoverX PathHunter D2R β-arrestin-2 recruitment assay; type: cell-based; details: D2R-expressing CHO cells; up to 10 µM; n=1, performed in duplicate
mouse D2Long = mouse D2Long (Mus musculus, UniProt P61168); assay: BRET β-arrestin-2 recruitment assay with GRK2 co-expression; type: cell-based; details: for β-arrestin-2 recruitment agonist activity in BRET assay: up to 1 µM, GRK2 co-expressed
D2L receptors = D2L receptors (Homo sapiens, UniProt P14416); assay: D2R β-arrestin-2 recruitment Tango assay; type: cell-based; details: for Emax: HTLA, read-out: β-arrestin Emax (%); for EC50: β-arrestin EC50 (nM)
5-HT5A = 5-HT5A (Homo sapiens, UniProt P47898); assay: Radioligand binding, 5-HT5A
D3R = D3R (Homo sapiens, UniProt P35462); assay: Radioligand binding, D3R
D4R = molecular target: T2, D4R (Homo sapiens, UniProt P21917); assay: Radioligand binding, D4R
T2 sequence (P21917 1-419): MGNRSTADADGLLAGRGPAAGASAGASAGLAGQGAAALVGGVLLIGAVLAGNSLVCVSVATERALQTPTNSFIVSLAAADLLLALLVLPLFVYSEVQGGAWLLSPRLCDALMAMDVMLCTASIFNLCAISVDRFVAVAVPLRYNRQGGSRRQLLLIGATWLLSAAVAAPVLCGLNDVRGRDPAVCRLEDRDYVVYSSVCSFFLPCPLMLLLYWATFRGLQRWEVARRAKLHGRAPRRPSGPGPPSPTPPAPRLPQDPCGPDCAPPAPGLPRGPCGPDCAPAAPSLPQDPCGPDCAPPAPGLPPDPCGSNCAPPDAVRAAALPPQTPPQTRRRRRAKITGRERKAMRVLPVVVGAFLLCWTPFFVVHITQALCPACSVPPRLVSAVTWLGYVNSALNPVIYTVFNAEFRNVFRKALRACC

D2R = D2R (Homo sapiens, UniProt P14416); assay: Radioligand binding, D2R
H2-histamine receptor = H2-histamine receptor (Homo sapiens, UniProt P25021); assay: Radioligand binding, H2
D5R = D5R (Homo sapiens, UniProt P21918); assay: Radioligand binding, D5R
D1R = D1R (Homo sapiens, UniProt P21728); assay: Radioligand binding, D1R
5-HT1B = 5-HT1B (Homo sapiens, UniProt P28222); assay: Radioligand binding, 5-HT1B
5-HT2C = molecular target: T3, 5-HT2C (Homo sapiens, UniProt P28335); assay: Radioligand binding, 5-HT2C
T3 sequence (P28335 33-458): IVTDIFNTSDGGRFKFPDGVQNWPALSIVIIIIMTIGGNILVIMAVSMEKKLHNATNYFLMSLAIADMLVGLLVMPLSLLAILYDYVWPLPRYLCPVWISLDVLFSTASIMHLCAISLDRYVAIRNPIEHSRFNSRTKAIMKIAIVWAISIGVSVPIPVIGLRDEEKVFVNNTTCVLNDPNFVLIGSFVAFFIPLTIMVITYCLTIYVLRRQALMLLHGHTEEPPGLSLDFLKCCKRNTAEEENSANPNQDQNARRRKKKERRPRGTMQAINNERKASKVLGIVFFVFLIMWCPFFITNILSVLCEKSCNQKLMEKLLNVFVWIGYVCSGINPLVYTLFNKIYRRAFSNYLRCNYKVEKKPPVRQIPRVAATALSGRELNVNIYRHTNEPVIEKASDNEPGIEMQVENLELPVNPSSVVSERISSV

5-HT7 = 5-HT7 (Homo sapiens, UniProt P34969); assay: Radioligand binding, 5-HT7
5-HT2A = 5-HT2A (Homo sapiens, UniProt P28223); assay: Radioligand binding, 5-HT2A
5-HT1D = 5-HT1D (Homo sapiens, UniProt P28221); assay: Radioligand binding, 5-HT1D
5-HT1A = molecular target: T4, 5-HT1A (Homo sapiens, UniProt P08908); assay: Radioligand binding, 5-HT1A
T4 sequence (P08908 1-422): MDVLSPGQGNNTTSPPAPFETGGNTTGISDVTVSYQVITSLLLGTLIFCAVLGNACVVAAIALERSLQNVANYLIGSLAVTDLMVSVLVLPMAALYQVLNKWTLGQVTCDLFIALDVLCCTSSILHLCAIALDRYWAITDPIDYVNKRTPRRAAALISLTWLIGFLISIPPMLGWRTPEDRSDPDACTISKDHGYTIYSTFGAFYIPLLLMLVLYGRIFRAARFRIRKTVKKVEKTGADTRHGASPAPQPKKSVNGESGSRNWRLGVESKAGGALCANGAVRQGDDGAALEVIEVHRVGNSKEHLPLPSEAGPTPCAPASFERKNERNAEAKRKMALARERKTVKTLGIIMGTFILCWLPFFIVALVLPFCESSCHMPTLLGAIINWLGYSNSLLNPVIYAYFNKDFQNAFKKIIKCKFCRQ

5-HT2B = 5-HT2B (Homo sapiens, UniProt P41595); assay: Radioligand binding, 5-HT2B
human D2Rlong [2] = molecular target: T1, human D2Rlong; assay: cell-based; details: for Gαi1-Gγ2 dissociation BRET partial agonist activity relative to quinpirole: HEK293T cells
5-HT3 = molecular target: T5, 5-HT3 (Homo sapiens, UniProt P46098); assay: Radioligand binding, 5-HT3
T5 sequence (P46098 24-478): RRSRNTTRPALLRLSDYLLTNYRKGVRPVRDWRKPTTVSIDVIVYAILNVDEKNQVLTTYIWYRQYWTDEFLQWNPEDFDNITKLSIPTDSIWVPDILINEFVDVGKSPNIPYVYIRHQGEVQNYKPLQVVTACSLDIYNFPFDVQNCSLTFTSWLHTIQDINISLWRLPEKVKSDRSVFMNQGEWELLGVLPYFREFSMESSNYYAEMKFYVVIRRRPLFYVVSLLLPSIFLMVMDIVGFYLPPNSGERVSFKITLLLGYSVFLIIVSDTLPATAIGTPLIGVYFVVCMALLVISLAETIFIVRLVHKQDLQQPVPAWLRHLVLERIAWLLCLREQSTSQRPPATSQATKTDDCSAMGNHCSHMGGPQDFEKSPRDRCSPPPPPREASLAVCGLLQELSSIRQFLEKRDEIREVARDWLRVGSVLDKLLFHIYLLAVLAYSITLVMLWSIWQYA

5-HT6 = 5-HT6 (Homo sapiens, UniProt P50406); assay: Radioligand binding, 5-HT6
[3] = normalized to maximum cAMP inhibition by quinpirole (100%)
[4] = read-out: cAMP Emax (%), HEK293T cells, GloSensor-22F, normalized to maximum cAMP inhibition by quinpirole (100%)
[5] = Binding affinity Ki (nM), 5-HT1A
[6] = Binding affinity Ki (nM), 5-HT2B

Chain of 5-HT1D (P28221 whole entry, species assumed): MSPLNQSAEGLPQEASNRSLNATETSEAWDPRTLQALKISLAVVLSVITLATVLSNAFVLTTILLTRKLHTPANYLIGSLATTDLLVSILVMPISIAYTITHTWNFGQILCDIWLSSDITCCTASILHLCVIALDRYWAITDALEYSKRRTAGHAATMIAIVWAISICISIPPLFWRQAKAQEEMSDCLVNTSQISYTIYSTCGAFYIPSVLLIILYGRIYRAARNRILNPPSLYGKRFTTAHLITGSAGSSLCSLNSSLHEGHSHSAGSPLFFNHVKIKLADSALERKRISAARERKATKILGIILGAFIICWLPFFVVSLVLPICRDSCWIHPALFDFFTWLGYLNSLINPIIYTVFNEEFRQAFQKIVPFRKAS
Chain of D5R (P21918 whole entry): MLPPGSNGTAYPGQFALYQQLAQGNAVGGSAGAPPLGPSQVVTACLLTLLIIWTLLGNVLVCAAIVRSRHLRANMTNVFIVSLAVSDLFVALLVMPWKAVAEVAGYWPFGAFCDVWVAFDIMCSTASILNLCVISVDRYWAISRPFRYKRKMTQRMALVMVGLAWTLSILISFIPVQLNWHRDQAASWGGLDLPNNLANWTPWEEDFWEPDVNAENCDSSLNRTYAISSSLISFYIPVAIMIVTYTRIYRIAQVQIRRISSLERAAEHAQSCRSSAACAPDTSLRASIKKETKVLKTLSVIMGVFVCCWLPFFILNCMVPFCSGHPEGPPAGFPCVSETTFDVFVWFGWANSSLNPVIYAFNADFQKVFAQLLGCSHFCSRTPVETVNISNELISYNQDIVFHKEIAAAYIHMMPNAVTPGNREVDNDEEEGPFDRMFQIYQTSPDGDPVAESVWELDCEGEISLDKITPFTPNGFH
Chain of D1R (P21728 whole entry): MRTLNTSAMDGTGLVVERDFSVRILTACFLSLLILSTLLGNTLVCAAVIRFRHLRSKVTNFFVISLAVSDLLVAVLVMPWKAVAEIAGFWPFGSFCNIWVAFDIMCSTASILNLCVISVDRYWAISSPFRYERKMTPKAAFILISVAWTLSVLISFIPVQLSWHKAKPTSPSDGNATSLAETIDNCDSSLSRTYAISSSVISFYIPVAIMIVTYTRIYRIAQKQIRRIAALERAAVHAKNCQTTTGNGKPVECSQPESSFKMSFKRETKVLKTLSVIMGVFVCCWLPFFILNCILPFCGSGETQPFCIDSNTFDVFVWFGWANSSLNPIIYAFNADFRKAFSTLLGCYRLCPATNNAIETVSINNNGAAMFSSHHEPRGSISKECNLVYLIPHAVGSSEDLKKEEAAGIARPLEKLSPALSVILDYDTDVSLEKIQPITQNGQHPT
Chain of 5-HT7 (P34969 whole entry, species assumed): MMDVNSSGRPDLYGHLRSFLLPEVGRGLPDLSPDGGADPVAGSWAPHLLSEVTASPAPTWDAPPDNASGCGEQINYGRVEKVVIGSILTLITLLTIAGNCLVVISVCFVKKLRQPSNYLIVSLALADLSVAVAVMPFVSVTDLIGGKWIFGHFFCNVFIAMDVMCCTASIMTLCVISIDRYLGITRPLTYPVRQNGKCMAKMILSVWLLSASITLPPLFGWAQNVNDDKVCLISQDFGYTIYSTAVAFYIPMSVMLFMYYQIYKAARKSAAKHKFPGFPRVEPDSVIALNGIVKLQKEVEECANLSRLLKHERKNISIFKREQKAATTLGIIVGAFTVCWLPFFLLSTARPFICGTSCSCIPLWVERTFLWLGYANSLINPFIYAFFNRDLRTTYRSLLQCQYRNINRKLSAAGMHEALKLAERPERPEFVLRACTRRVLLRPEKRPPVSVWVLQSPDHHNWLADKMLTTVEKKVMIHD
Chain of 5-HT1B (P28222 whole entry, species assumed): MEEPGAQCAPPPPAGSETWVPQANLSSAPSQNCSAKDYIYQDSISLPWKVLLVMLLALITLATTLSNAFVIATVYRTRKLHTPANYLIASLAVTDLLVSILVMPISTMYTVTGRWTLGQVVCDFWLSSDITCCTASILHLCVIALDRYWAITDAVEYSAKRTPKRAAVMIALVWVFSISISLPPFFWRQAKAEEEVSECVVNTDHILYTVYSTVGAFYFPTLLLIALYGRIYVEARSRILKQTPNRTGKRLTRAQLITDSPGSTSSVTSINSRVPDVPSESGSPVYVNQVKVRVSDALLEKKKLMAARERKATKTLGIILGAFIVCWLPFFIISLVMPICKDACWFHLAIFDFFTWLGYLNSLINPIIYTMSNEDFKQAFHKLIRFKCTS
Chain of D3R (P35462 whole entry): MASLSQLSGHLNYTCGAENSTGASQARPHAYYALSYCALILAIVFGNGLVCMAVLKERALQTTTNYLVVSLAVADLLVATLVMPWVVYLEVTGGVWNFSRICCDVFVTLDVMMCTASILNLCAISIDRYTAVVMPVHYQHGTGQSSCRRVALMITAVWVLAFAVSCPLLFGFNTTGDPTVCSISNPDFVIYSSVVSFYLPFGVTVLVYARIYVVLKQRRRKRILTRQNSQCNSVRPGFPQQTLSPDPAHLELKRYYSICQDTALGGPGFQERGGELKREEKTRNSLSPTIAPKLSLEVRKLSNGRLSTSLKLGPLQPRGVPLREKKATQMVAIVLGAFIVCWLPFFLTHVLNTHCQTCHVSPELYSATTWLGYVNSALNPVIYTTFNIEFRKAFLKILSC
Chain of 5-HT2B (P41595 whole entry, species assumed): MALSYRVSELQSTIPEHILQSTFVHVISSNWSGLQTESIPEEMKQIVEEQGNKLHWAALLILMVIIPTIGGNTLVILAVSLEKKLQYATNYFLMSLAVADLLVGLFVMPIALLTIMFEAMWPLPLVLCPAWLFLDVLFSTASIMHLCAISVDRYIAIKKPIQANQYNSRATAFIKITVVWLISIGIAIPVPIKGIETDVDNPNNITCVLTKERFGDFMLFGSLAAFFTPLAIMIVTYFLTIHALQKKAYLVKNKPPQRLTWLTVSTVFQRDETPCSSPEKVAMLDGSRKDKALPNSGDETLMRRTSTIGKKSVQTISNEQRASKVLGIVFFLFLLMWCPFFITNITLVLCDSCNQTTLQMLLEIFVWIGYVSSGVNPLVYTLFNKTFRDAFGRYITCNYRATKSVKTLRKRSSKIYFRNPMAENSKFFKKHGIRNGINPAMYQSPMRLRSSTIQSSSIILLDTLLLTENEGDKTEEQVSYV
Chain of mouse D2Long (P61168 whole entry): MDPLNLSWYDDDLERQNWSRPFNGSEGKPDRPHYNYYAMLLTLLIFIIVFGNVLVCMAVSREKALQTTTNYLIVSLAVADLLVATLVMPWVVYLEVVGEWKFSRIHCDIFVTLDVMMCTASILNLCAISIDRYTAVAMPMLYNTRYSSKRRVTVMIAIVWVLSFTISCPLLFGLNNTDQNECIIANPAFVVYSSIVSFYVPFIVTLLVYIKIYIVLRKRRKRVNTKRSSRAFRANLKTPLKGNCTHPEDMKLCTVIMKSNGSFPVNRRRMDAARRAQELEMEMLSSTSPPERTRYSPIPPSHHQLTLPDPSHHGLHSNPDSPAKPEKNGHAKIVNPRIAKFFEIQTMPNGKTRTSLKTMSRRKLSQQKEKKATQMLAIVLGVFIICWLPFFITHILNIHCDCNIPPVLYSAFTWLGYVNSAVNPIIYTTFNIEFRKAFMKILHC
T1 sequence (P14416 whole entry): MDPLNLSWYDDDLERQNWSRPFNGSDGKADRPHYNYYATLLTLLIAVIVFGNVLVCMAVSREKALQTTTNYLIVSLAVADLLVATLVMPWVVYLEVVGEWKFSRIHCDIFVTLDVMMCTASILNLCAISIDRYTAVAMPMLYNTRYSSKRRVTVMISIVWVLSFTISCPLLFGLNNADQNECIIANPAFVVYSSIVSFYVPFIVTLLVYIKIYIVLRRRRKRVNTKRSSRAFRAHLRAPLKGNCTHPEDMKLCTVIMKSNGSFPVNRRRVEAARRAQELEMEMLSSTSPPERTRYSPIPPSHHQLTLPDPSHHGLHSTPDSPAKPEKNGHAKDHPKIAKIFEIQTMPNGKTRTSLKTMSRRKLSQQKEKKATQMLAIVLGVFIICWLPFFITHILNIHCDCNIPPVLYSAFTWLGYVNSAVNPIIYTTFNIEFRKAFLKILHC
Chain of hD2L receptors (P14416 whole entry): as above
Chain of D2L receptors (P14416 whole entry): as above
Chain of D2R (P14416 whole entry): as above
Chain of 5-HT2A (P28223 whole entry, species assumed): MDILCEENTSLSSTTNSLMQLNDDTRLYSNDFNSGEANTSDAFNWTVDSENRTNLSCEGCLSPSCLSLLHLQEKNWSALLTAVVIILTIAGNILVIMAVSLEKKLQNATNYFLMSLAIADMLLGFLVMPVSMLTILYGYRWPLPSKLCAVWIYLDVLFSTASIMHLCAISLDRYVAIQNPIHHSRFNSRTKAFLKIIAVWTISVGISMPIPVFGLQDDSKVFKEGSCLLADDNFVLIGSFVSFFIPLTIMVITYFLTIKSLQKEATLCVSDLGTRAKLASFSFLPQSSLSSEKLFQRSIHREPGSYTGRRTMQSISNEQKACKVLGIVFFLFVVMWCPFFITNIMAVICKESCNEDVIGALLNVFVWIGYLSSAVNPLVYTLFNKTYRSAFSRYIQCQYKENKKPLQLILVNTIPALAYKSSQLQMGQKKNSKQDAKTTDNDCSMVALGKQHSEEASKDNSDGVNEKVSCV
Chain of 5-HT5A (P47898 whole entry, species assumed): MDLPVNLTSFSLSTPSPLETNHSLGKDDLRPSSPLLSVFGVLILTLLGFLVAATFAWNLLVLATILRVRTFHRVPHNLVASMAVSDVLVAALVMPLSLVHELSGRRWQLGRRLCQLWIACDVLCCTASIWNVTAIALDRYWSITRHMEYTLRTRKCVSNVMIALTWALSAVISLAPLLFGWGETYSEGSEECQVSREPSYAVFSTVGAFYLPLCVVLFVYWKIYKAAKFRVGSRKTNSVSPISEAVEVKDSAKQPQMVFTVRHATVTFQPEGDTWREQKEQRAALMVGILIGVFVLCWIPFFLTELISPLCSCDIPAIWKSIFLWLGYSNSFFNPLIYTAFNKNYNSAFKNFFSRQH

Compound	β-arrestin recruitment activity as measured by DiscoverX (human D2Rlong [1])	Emax (D2L receptors)	Ki (D3R)	Ki (D4R)	Ki (D2R)	cAMP Emax (%) (hD2L receptors; [3])	Emax (hD2L receptors; [4])	β-arrestin-2 recruitment agonist activity in BRET assay (mouse D2Long)	Ki (D5R)	Ki (D1R)	Ki (5-HT1B)	Ki (5-HT7)	Ki (5-HT2A)	Ki (5-HT1D)	Ki (5-HT1A; [5])	Ki (5-HT2B; [6])	other results
Oc1c(CN2CCN(c3ccccn3)CC2)cc(Cl)c2cccnc12 [Compound 59, 5-Chloro-7-((4-(pyridin-2-yl)piperazin-1-yl)methyl)quinolin-8-ol, reference compound]	lack of β-arrestin-2 recruitment activity; also recorded: no activity	67%	–	–	–	–	–	–	–	–	–	–	–	–	–	–	Emax (hD2L receptors; read-out: cAMP Emax (%)): 63%; Emax (mouse D2Long; HEK-293T, read-out: β-arrestin-2 recruitment BRET Emax (% of quinpirole)): 68%; EC50 (D2L receptors; Tango assay, HTLA cells): 102 nM and 46 nM
Cc1ccc2cccc(N3CCN(CCCCOc4ccc5sc(C(C)C)nc5c4)CC3)c2n1 [Compound 49, 2-Isopropyl-5-(4-(4-(2-methylquinolin-8-yl)piperazin-1-yl)butoxy)benzo[d]thiazole]	–	< 20%	64 nM	7100 nM	45 nM	32%	30 to 40%	not active; also recorded: no β-arrestin recruitment	1500 nM	2000 nM	1600 nM	69 nM	110 nM	94 nM	14 nM	–	Ki (5-HT5A): 1400 nM; Ki (H2-histamine receptor): 430 nM; Ki (5-HT2C): 140 nM
CNc1nc2cc(OCCCCN3CCN(c4cccc(Cl)c4Cl)CC3)ccc2s1 [Compound 24, 5-(4-(4-(2,3-Dichlorophenyl)piperazin-1-yl)butoxy)-N methylbenzo[d]thiazol-2-amine]	–	–	–	–	–	40%	–	not active; also recorded: no β-arrestin recruitment	–	–	–	–	–	–	–	–	Ki (D3R; read-out: Binding affinity Ki (nM), D3R, radioligand binding): 35 nM; Ki (D4R; read-out: Binding affinity Ki (nM), D4R, radioligand binding): 280 nM; Ki (D2R; read-out: Binding affinity Ki (nM), D2R, radioligand binding): 60 nM; Ki (D5R; read-out: Binding affinity Ki (nM), D5R, radioligand binding): 1500 nM; Ki (D1R; read-out: Binding affinity Ki (nM), D1R, radioligand binding): 1100 nM; Ki (5-HT1B; read-out: Binding affinity Ki (nM), 5-HT1B, radioligand binding): 1400 nM; Ki (5-HT7; read-out: Binding affinity Ki (nM), 5-HT7, radioligand binding): 100 nM; Ki (5-HT2A; read-out: Binding affinity Ki (nM), 5-HT2A, radioligand binding): 72 nM; Ki (5-HT1D; read-out: Binding affinity Ki (nM), 5-HT1D, radioligand binding): 390 nM; β-arrestin Emax (%) (D2L receptors; Tango assay, HTLA cells, normalized to quinpirole (100%)): <20%; Ki (5-HT1A; read-out: Binding affinity Ki (nM), 5-HT1A): 55 nM; Ki (5-HT2B; read-out: Binding affinity Ki (nM), 5-HT2B): 12 nM
CC(C)c1nc2cc(OCCCCN3CCN(c4cccc5c4OCCO5)CC3)ccc2s1 [Compound 53, 5-(4-(4-(2,3-Dihydrobenzo[b][1,4]dioxin-5-yl)piperazin-1-yl)butoxy)-2-isopropylbenzo[d]thiazole]	lack of β-arrestin-2 recruitment activity; also recorded: no activity	< 20%	31 nM	77 nM	30 nM	–	30 to 40%	not active; also recorded: no β-arrestin recruitment	1100 nM	2000 nM	420 nM	31 nM	29 nM	100 nM	1.4 nM	–	EC50 (human D2Rlong [2]): 4.6 nM; Gαi1-Gγ2 dissociation BRET partial agonist activity relative to quinpirole (human D2Rlong [2]): 47%; Ki (5-HT3): 2600 nM
CNc1nc2cc(OCCCCN3CCC(c4cccc(Cl)c4Cl)CC3)ccc2s1 [Compound 54, 5-(4-(4-(2,3-Dichlorophenyl)piperidin-1-yl)butoxy)-N-methylbenzo[d]thiazol-2-amine]	–	–	69 nM	430 nM	99 nM	–	40 to 50%	not active; also recorded: no β-arrestin recruitment	1800 nM	1100 nM	2600 nM	–	70 nM	410 nM	66 nM	< 20 nM	Ki (5-HT6): 410 nM
CCc1nc2cc(OCCCCN3CCC(c4cccc(Cl)c4Cl)CC3)ccc2s1 [Compound 46, 5-(4-(4-(2,3-Dichlorophenyl)piperidin-1-yl)butoxy)-2-ethylbenzo[d]thiazole]	–	< 20%	100 nM	1800 nM	170 nM	43%	40 to 50%	not active; also recorded: no β-arrestin recruitment	–	1700 nM	–	–	140 nM	820 nM	100 nM	71 nM	Ki (5-HT5A): 1600 nM; Ki (5-HT3): 1500 nM
Cc1nc2cc(OCCCCN3CCN(c4cccc(Cl)c4Cl)CC3)ccc2s1 [Compound 1, 5-(4-(4-(2,3-Dichlorophenyl)piperazin-1-yl)butoxy)-2-methylbenzo[d]thiazole]	lack of β-arrestin-2 recruitment activity; also recorded: no activity	23%	13 nM	82 nM	150 nM	–	50%	no activity	–	–	1700 nM	140 nM	120 nM	320 nM	86 nM	38 nM	EC50 (human D2Rlong [2]): 3.6 nM; Gαi1-Gγ2 dissociation BRET partial agonist activity relative to quinpirole (human D2Rlong [2]): 57%; inhibition of dopamine-stimulated D2R G protein activation as measured by cAMP inhibition (hD2L receptors; antagonist mode, Figure S2): partial inhibition; IC50 (mouse D2Long): 18 nM; antagonist activity on dopamine-stimulated β-arrestin-2 recruitment (BRET) (mouse D2Long; antagonist mode): full antagonist activity; EC50 (D2L receptors; Tango assay, HTLA cells): 13 nM
